RP-LC retention time data for 81 compounds are collected here from the METLIN SMRT retention time set (Domingo-Almenara et al. 2019).

This series in a line: gradient 5% acetonitrile 3 min, to 50% in 2 min, to 85% in 15 min, held 3 min, 100 µL/min. The note with it: column: Zorbax Extend-C18 2.1 x 50 mm; eluents: water / acetonitrile, 0.1% formic acid. In a few lines: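 Values are retention times taken from adduct peaks that software picked and an analyst inspected. The pure standards were run as mixtures of ~100 molecules on HPLC linked to a quadrupole time-of-flight mass spectrometer, in positive and negative ionization mode. A Zorbax Extend-C18 column (2.1 × 50 mm, 1.8 μm) was used at 100 μL/min with water and acetonitrile, each including 0.1% formic acid.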
Regarding `CN1C(=O)C2CCCCN2c2ccc(C(=O)NCc3ccc4c(c3)OCO4)cc21` (stereo unspecified), the RP-LC retention time turned out to be 563 s. Turning to `Brc1cccc(-c2nn3c(-c4ccccn4)nnc3s2)c1`, the RP-LC retention time is 860 s. Under `Cc1noc(C)c1CCNC(=O)Cn1c2ccccc2c2cnn(C)c(=O)c21` stands 706 s; under `CC1CN2C=NC(N3CCN(C(=O)Nc4cc(F)cc(F)c4)CC3)=CC2=N1` (stereo unspecified), 664 s. Under `COc1cccc(C2=NC3(CCN(C(C)C)CC3)NC(c3cc(Br)ccc3O)C2)c1` (stereo unspecified) stands 647 s. Under `CCn1cc(-c2nc(CC(=O)Nc3ccccc3F)cs2)c2cccnc21` stands 874 s; under `CCn1ccc2c(cc(C(=O)Nc3ccc(Cl)cc3)n2C)c1=O`, 819 s. `CCCOc1ccc(CNC(=O)C2CCc3nc(N4CCOCC4)ncc3C2)cc1` (stereo unspecified): the RP-LC retention time was determined as 792 s.

The compound `CCn1cc(-c2ccc(F)cc2)cc1C(=O)N1CCCCC1` showed an RP-LC retention time of 1060 s. Take `CC(C)Cn1cc(S(=O)(=O)Nc2cc(F)ccc2Cl)c2cccnc21`: the RP-LC retention time worked out at 1020 s.

Consider `O=C(NC1CCN(c2cc(-c3ccc(F)cc3)[nH]n2)C1)c1ccc2[nH]ccc2c1` (stereo unspecified), for which the RP-LC retention time stood at 689 s.

In turn, `CC(=O)c1ccc(N2CCN(C(=O)C(=O)c3cccn3C)CC2)cc1` displayed an RP-LC retention time of 735 s. Take `CCN1C(=O)CN(C(=O)C2CCCCC2)CC12CCOCC2`: the RP-LC retention time came out at 654 s. Under `O=C(NCC1CCCO1)C1CCCN(c2ccc(Sc3ccc(Br)cc3)nn2)C1` (stereo unspecified) stands 793 s.

Consider `Cc1cc(C)cc(NC(=O)c2c(C)oc3nc(C)nc(N4CCOCC4)c23)c1`, for which the RP-LC retention time stood at 888 s. In turn, `CC1=C(c2ccccc2)S(=O)(=O)N=C1N1CCCN(C(=O)c2sccc2C)CC1` returned an RP-LC retention time of 721 s. `COc1ccc(C2C(=O)N(CCc3ccccc3)CC(=O)N2Cc2cccs2)cc1` (stereo unspecified): the RP-LC retention time amounted to 964 s. Regarding `CCn1cnc2cc(CNC(=O)c3cc(C)cc(C)c3)ccc21`, the RP-LC retention time turned out to be 646 s. As to `CCNc1cc(C)nc(N2CCN(C(=O)c3cccc(Br)c3)CC2)n1`, the RP-LC retention time is 775 s. In turn, `CCCCN1CCN(Cc2nc(-c3ccc(N4CCOCC4)nc3)no2)CC1` gave an RP-LC retention time of 587 s. With `CN(C)CCCNc1oc(-c2ccccc2F)nc1S(=O)(=O)c1ccccc1` the figure was 666 s; with `O=C(C1CCCC1)N1CCCC(c2nn[nH]n2)C1` (stereo unspecified), 636 s; with `Cc1ccc(N2CCN(C(=O)c3ccc4c(c3)CC(=O)N4C)CC2)cc1`, 796 s. In turn, `COc1ccccc1CCC(=O)NC(C(=O)Nc1nc2ccccc2[nH]1)C(C)C` (stereo unspecified) yielded an RP-LC retention time of 721 s.

The compound `CCOC(=O)c1cc(S(=O)(=O)N2CCCC2C(=O)Nc2cccc(F)c2)cn1C` (stereo unspecified) had an RP-LC retention time of 938 s.

As to `Cc1ccc(S(=O)(=O)N2CCC3(CC2)NCCN=C3NCc2ccc(C(F)(F)F)cc2)cc1`, the RP-LC retention time amounted to 789 s. For `CCC(C)NC(=O)C1CCN(S(=O)(=O)c2cn(CC)cn2)CC1` (stereo unspecified), the RP-LC retention time turned out to be 639 s. Take `COc1ccc2c(c1)C1(CCN(C(=O)NC3CCCCC3)C1)C(=O)N2` (stereo unspecified): the RP-LC retention time came to 703 s. With `CC1CCN(c2ccc(-c3noc(CN4CCN(c5ccccc5)CC4)n3)cn2)CC1` the figure was 787 s; with `CN1C(=O)c2cccnc2Sc2cc(NC(=O)c3cccc(C(F)(F)F)c3)ccc21`, 910 s; with `Cc1nc2cc(N3CCCC(C(=O)N4CCCCCC4)C3)cnc2nc1C` (stereo unspecified), 653 s.

Regarding `O=S(=O)(Nc1ccc(F)cc1)c1cccnc1N1CCOCC1`, the RP-LC retention time stood at 801 s.

`COc1ccc(-c2noc(C3CC(=O)N(c4ccc5c(c4)OCO5)C3)n2)cc1` (stereo unspecified): the RP-LC retention time was determined as 881 s. Under `O=C(Nc1cc(F)ccc1F)C1CCCN(c2nc3ccccc3nc2C(F)(F)F)C1` (stereo unspecified) stands 1270 s.

`O=S(=O)(c1ccc(-c2nnc(C3CCCC3)o2)o1)N1CCOCC1` had an RP-LC retention time of 834 s. For `COc1ccc(-c2noc(-c3nc(-c4ccccn4)no3)n2)cc1`, the RP-LC retention time is 966 s. For `O=c1n(CC2CC2)nc2n1CCC(NS(=O)(=O)c1cccnc1)CC2` (stereo unspecified), the RP-LC retention time came out at 621 s.

For the compound `O=C(c1ccco1)N1CCN(c2ccc(-c3noc(C4CCC4)n3)cc2)CC1`, the RP-LC retention time was 990 s. In the case of `CC(C)C(=O)Nc1nc2cc(NC(=O)C3CCN(S(=O)(=O)N4CCCC4)CC3)ccc2s1`, the RP-LC retention time is 805 s.

The compound `COCCNC(=O)COc1cc(C)nc(-c2ccc(Cl)cc2)n1` gave an RP-LC retention time of 828 s. With `CCOC(=O)c1c(C)oc2nc(C)nc(NCCCN3CCN(c4ccccc4)CC3)c12` the figure was 826 s. With `CCOc1ccc(-c2nc(Cn3nnc(C(=O)NCc4ccc(OC)cc4)c3N)c(C)o2)cc1OC` the figure was 922 s. For `O=C(Cc1ccc(Cl)cc1)N1CCc2nc[nH]c2C1`, the RP-LC retention time is 590 s.

`CC(=O)c1cccc(C(=O)NC2(c3nc(C)no3)CCCCC2)c1` yielded an RP-LC retention time of 798 s. Under `CC(Cc1ccco1)NC(=O)c1cccn(C)c1=O` (stereo unspecified) stands 649 s; under `CC1=C(c2ccccc2)S(=O)(=O)N=C1N1CCCN(C(=O)c2ccc(Cl)s2)CC1`, 896 s. In turn, `Cc1ccccc1NC(=O)Nc1ccc2nnc(C)n2c1` registered an RP-LC retention time of 662 s.

On to `CCCn1cc(C2=CCN(C(=O)Nc3cccc(Cl)c3F)CC2)c2cccnc21`, for which the RP-LC retention time turned out to be 773 s. On to `COCC(=O)N1CC(c2nnc(C(C)C)o2)C2(CCOCC2)C1` (stereo unspecified), for which the RP-LC retention time turned out to be 577 s. As to `O=C(Cc1cccs1)Nc1ccc(N2CCN(C3CCCCC3)C2=O)nc1`, the RP-LC retention time is 804 s. Under `Cc1ccc(/C=C/S(=O)(=O)N2CC(c3nc(-c4cccs4)no3)C2)cc1` stands 996 s. With `COc1ccc(CN2C[C@@H]3C(=O)N(C)C(=O)[C@@H]3C2)cc1OC` the figure was 566 s; with `CCN1C(=O)C2(CCN(S(=O)(=O)c3ccc(C)c(F)c3)CC2)c2ccccc21`, 1120 s; with `CCc1nc2cc(-c3noc(-c4ccc(OC)cc4C)n3)ccc2o1`, 1270 s. As to `c1cc2c(cc1OCc1cn(CC3CCCNC3)nn1)CCC2` (stereo unspecified), the RP-LC retention time was found to be 587 s. With `COc1ccccc1C(=O)NC1CCN(c2ccc(C)cc2)C1=O` (stereo unspecified), the RP-LC retention time is 870 s.

For the compound `CC1CCC(NC(=O)Cc2csc3nc(-c4ccccc4)cn23)CC1` (stereo unspecified), the RP-LC retention time was 843 s. As for `O=C([C@@H]1C[C@H](F)CN1S(=O)(=O)c1ccccc1)N1CCCCC1`, the RP-LC retention time amounted to 735 s.

For `CCOc1ccc(CCNC(=O)c2sc(-c3cccn3CC)nc2C)cc1OCC`, the RP-LC retention time came out at 1140 s. Under `CCN1CCC2(CC1)CC(c1nnc(C)o1)N(CCc1ccccc1)C2` (stereo unspecified) stands 550 s. Under `COc1ccc(NC(=O)Cn2c(N3CCc4ccccc4C3)nc(C)cc2=O)cc1` stands 757 s. With `CC(=O)N1CCCC1c1nc2ccccc2n1CC(=O)N1CCCCC1` (stereo unspecified), the RP-LC retention time is 594 s. For `O=C(Nc1nnc(C2CC(=O)N(c3ccccc3)C2)o1)c1ccccc1Br` (stereo unspecified), the RP-LC retention time amounted to 709 s.

Compound `CCOCC(=O)Nc1ccc(-c2nnc(CC)o2)cc1` came in with an RP-LC retention time of 657 s. Under `Cc1sc(C)c(S(=O)(=O)NCC2CCCO2)c1-c1cc(C(F)(F)F)on1` (stereo unspecified) stands 1020 s. In the case of `O=C(CCCn1c(=O)c2cccn2c2ccc(F)cc21)N1CCCCCC1`, the RP-LC retention time stood at 934 s.

`COc1ccc(N2CCN(c3cc(SCC(=O)Nc4ccc5c(c4)OCO5)ncn3)CC2)cc1` had an RP-LC retention time of 900 s. With `CCc1cc(C2CCCN2C(=O)NCc2ccccc2)on1` (stereo unspecified) the figure was 766 s; with `Cc1ccc(CN2C(=O)CN(S(C)(=O)=O)CC2(C)C(=O)NCc2ccccc2)cc1` (stereo unspecified), 851 s. In turn, `O=C(NCC1CCOCC1)Nc1cccc(Cl)c1` yielded an RP-LC retention time of 735 s. Under `Cn1cc(C2=CCN(CC(=O)N3CCN(c4ccc(F)cc4)CC3)CC2)cn1` stands 612 s; under `CSc1ncccc1C(=O)N1CCCn2nc(-c3ccncc3)cc2C1`, 586 s. `Cc1c(C2CCN(C(=O)NCCc3ccccc3)CC2)noc1N` yielded an RP-LC retention time of 700 s.

Regarding `O=S(=O)(c1ccc(F)cc1)N1CCC(Cc2nncn2-c2ccccc2)CC1`, the RP-LC retention time came to 787 s. Under `Cc1sc2ccn(C)c(=O)c2c1C(=O)NCc1cc(F)ccc1F` stands 781 s; under `Cc1cccc(C2CCCN2C(=O)c2c(Br)cnn2C)c1` (stereo unspecified), 908 s; under `O=C(NCc1cccc(Cl)c1)C1CCCN(c2nc3ccsc3c(=O)n2Cc2ccccc2)C1` (stereo unspecified), 988 s. With `COC1C(=O)N(c2cccc(F)c2)C12CCN(S(=O)(=O)Cc1ccccc1F)CC2` (stereo unspecified) the figure was 1040 s. The compound `COc1ccc(-c2nnc(COc3ccc(NC(=O)CSc4ccncc4)cc3)o2)cc1` yielded an RP-LC retention time of 650 s. Consider `O=C1COc2ccccc2N1Cc1nc(-c2ccc(Br)cc2)no1`, for which the RP-LC retention time stood at 1110 s.

For the compound `COc1ccc(-c2cc(C(=O)N3CCCC3c3c(C)noc3C)on2)cc1` (stereo unspecified), the RP-LC retention time was found to be 856 s.
